Measured values taken from patent US7056947B2, “Aza-peptide epoxides” (Georgia Tech Research Corp., priority 2002, dated 2006).

Experiments:
Format in all cases: biochemical
papain = target: T1, papain (Carica papaya, UniProt P00784); test: Inhibition of papain, incubation method; conditions: second-order rate constant, NI = no inhibition; for kinact/KI: pH 7.5, read-out: kobs/[I] papain
T1 sequence (P00784 134-345): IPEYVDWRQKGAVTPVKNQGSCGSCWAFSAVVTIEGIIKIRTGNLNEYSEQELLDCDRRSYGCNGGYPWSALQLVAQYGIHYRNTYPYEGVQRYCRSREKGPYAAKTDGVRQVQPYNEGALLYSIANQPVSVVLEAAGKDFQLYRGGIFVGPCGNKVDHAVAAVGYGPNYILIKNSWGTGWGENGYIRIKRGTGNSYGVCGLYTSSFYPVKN
Experimental: (§1) The release of 7-amino-4-methylcoumarin was monitored (λex=360 nm, λem=465 nm) using a Tecan Spectra Fluor microplate reader. Pseudo first-order inactivation rate constants were obtained from plots of In vt/vo versus time.
The incubation method was also used for papain. The inhibition incubation buffer for papain was 50 mM Hepes buffer at pH 7.5, containing 2.5 mM DTT and 2.5 mM EDTA. The assay used the substrate Z-Phe-Arg-pNA (53.7 μM) in the same buffer. The approximate concentration of papain added to the incubation buffer was 0.29 mg/mL. The release of p-nitroanilide was monitored at 405 nm with a Molecular Devices Thermomax microplate reader.

cathepsin B = cathepsin B (Homo sapiens, UniProt P07858); test: Inhibition of cathepsin B, incubation method; conditions: second-order rate constant, NI = no inhibition; for kinact/KI: pH 6, read-out: kobs/[I] cathepsin B
Text: as §1

caspase-3 = target: T2, caspase-3 (Homo sapiens, UniProt P42574); test: Caspase-3 progress curve assay; conditions: substrate Z-DEVD-AFC; NI = no inhibition
T2 construct: made in house; host or cells: E. coli
T2 sequence (P42574 29-175 limits assumed): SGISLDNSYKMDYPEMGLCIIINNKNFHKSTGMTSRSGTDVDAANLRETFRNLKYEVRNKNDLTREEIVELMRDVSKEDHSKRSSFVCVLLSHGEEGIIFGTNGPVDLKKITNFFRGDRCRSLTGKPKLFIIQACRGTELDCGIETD
T2 sequence (P42574 176-277 limits assumed): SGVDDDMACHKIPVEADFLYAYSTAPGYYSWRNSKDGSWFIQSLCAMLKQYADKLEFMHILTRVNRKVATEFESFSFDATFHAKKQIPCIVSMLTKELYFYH
Experimental: Caspase-3, -6, and -8. Caspase-3, -6 and -8 were expressed in E. coli and purified according to methods previously described by Stennicke and Salvesen. Assays using the fluorogenic substrate Z-DEVD-AFC (λex=400 nm, λem=505 nm) were carried out on a Molecular Devices fMax fluorescence microplate reader. Inhibition rates and equilibria were determined by the progress curve method. The standard 100 μL reaction was started by adding enzyme to a mixture of substrate (final concentration of Z-DEVD-AFC 100 μM) and various amounts of inhibitor in buffer (50 mM Hepes, 100 mM NaCl, 0.1% (w/v) CHAPS, sucrose 10% (w/v), and 10 mM DTT, at pH 7.4). The caspases were pre-activated for 10 min at 37° C. in the presence of 10 mM DTT.

caspase-1 = target: T3, caspase-1 (Homo sapiens, UniProt P29466, D381E); test: Caspase-1 progress curve assay; conditions: D381E variant, substrate Ac-YVAD-AMC, 30° C.
T3 construct: His tag (N); made in house; host or cells: E. coli
T3 sequence (P29466 120-297 limits assumed): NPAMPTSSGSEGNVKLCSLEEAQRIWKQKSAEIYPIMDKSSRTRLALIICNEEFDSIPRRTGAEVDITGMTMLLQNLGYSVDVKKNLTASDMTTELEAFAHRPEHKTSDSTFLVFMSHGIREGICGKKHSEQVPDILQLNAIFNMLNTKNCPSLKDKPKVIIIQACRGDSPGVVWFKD
T3 sequence (P29466 317-404 D381E limits assumed): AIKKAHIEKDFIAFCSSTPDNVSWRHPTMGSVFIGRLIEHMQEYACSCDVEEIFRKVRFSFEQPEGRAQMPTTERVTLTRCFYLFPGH
Text: Caspase-1. The preparation of the autolytically stable caspase-1 variant used in these studies has been described previously. Briefly, the variant contains a mutation (D381E) which renders it resistant to autolytic inactivation, but has no detectable affect on enzyme activity as compared to the naturally occurring enzyme. The enzyme variant was expressed in E. coli, purified first by immobilized metal chromatography via the N-terminal N-His tag, treated with excess oxidized glutathione to stabilize the reactive thiolate, and then re-purified by size-exclusion chromatography.
Inhibition data was measured using the progress curve assay method. Serial dilutions of each compound were prepared using an initial 8-fold dilution of a DMSO stock into HGE (100 mM HEPES,20% glycerol v/v, 0.5 mM EDTA), followed by seven serial two-fold dilutions into HGE and 12.5% DMSO, thus maintaining constant DMSO through the dilution series. Ten μL of diluted stocks or of vehicle (HGE and 12.5% DMSO) were placed in triplicate onto a 96-well microtiter plate, allowing several compounds to be tested on each plate. The plate was covered to minimize evaporation, and the plate was pre-warmed to 30° C. for 20 minutes. Enzyme was diluted into 10.0 mL of assay buffer (HGE, 5 mM DTT, plus 15 μM Ac-YVAD-AMC, 2 nM approximate final enzyme concentration), and this activated reaction mixture was added to the plate at 90 μL/well. Progress of substrate hydrolysis was monitored for 900 s in a LabSystems (Needham, Mass.) Fluoroskan Ascent fluorescent plate-reader using 385 and 460 nm excitation and emission filters, respectively, and a photomultiplier gain setting of 10. Triplicate curves were averaged and fit by nonlinear regression to the equation for irreversible inactivation shown below.
[formula] where F0 was routinely fixed to zero, since fluorescence values were always adjusted to an origin of 0. The second order rate constant kon (M^−1s^−1) was obtained from the slopes by linear regression, and errors represent the standard deviation of the regression slope.

Compound	kinact/KI (papain)	k2 caspase-3 (caspase-3)	k2 caspase-1 (caspase-1)	further results
CCC(NC(=O)OC(C)(C)C)C(=O)NN(CCc1ccccc1)C(=O)[C@@H]1O[C@H]1CCc1ccccc1 (relative stereo) [Boc-Abu-AHph-trans-EP-CH2CH2Ph, trans-3-(N^2-(N-tert-Butoxycarbonyl-α-aminobutanoyl)-N^1-phenylethylhydrazinocarbonyl)-2-(2-phenylethyl)oxirane]	–	–	–	kobs/[I] papain (papain): 0.2 M⁻¹ s⁻¹
O=C(OCc1ccccc1)N(NCc1ccccc1)C(=O)[C@@H]1O[C@H]1CCc1ccccc1 (relative stereo) [Cbz-APhe-trans-EP-CH2CH2Ph, trans-3-(N^2-Benzyl-N^1-benzyloxycarbonylhydrazinocarbonyl)-2-(2-phenylethyl)oxirane]	0.92 M⁻¹ s⁻¹	–	–	–
CCOC(=O)[C@@H]1O[C@H]1C(=O)N(NCc1ccccc1)C(=O)OCc1ccccc1 (relative stereo) [Cbz-APhe-trans-EP-COOEt, trans-3-(N^2-Benzyl-N^1-benzyloxycarbonylhydrazinocarbonyl)oxirane-2-carboxylic Acid Ethyl Ester]	8.5 M⁻¹ s⁻¹	–	–	kinact/KI (cathepsin B): 1.8 M⁻¹ s⁻¹
C[C@H](NC(=O)OCc1ccccc1)C(=O)N[C@@H](C)C(=O)NN(CC(N)=O)C(=O)[C@@H]1O[C@H]1C(=O)OCc1ccccc1 (relative stereo) [Cbz-Ala-Ala-AAsn-trans-EP-COOCH2Ph, trans-3-(N^2-(N-Benzyloxycarbonylalanylalanyl)-N^1-carbamoylmethylhydrazinocarbonyl)oxirane-2-carboxylic Acid Benzyl Ester]	–	–	–	kinact/KI (cathepsin B): 1.09 M⁻¹ s⁻¹
CCOC(=O)[C@@H]1O[C@H]1C(=O)N(CC(N)=O)NC(=O)[C@H](C)NC(=O)[C@H](C)NC(=O)OCc1ccccc1 (relative stereo) [Cbz-Ala-Ala-AAsn-trans-EP-COOEt, trans-3-(N^2-(N-Benzyloxycarbonylalanylalanyl)-N^1-carbamoylmethylhydrazinocarbonyl)oxirane-2-carboxylic Acid Ethyl Ester]	–	–	–	kinact/KI (cathepsin B): 1.27 M⁻¹ s⁻¹
CC(C)CN(NC(=O)[C@H](Cc1ccccc1)NC(=O)OCc1ccccc1)C(=O)[C@@H]1O[C@H]1CCc1ccccc1 (relative stereo) [Cbz-Phe-ALeu-trans-EP-CH2CH2Ph]	–	–	–	kobs/[I] papain (papain): 0.7 M⁻¹ s⁻¹
O=C(N[C@@H](Cc1ccccc1)C(=O)NN(Cc1ccccc1)C(=O)[C@@H]1O[C@H]1CCc1ccccc1)OCc1ccccc1 (relative stereo) [Cbz-Phe-APhe-trans-EP-CH2CH2Ph, trans-3-(N^2-(N-3-Benzyloxyphenylalanyl)-N^1-benzylhydrazinocarbonyl)-2-(2-phenylethyl)oxirane]	–	–	–	kobs/[I] papain (papain): 0.5 M⁻¹ s⁻¹
CC(C)[C@H](NC(=O)CCc1ccccc1)C(=O)N[C@@H](C)C(=O)NN(CC(=O)O)C(=O)[C@H]1O[C@@H]1C(=O)OCc1ccccc1 [23d (S,S)]	–	1470 ± 40 M⁻¹ s⁻¹	52140 ± 5295 M⁻¹ s⁻¹	kobs/[I] cathepsin B (cathepsin B): 0.81 M⁻¹ s⁻¹
CCOC(=O)[C@@H]1O[C@H]1C(=O)N(CC(=O)O)NC(=O)[C@@H](NC(=O)[C@H](CCC(=O)O)NC(=O)[C@H](CC(C)C)NC(=O)OCc1ccccc1)[C@@H](C)O [26c (R,R), (2R,3R)-3-(N^2-(N-Benzyloxycarbonylleucylglutamylthreonyl)-N^1-carboxymethylhydrazinocarbonyl)oxirane-2-carboxylic Acid Ethyl Ester]	0.24 M⁻¹ s⁻¹	3250 ± 160 M⁻¹ s⁻¹	19570 M⁻¹ s⁻¹	–
CCOC(=O)[C@H]1O[C@@H]1C(=O)N(CC(=O)O)NC(=O)[C@@H](NC(=O)[C@H](CCC(=O)O)NC(=O)[C@H](CC(C)C)NC(=O)OCc1ccccc1)[C@@H](C)O [26c (S,S), (2S,3S)-3-(N^2-(N-Benzyloxycarbonylleucylglutamylthreonyl)-N^1-carboxymethylhydrazinocarbonyl)oxirane-2-carboxylic Acid Ethyl Ester]	0.47 M⁻¹ s⁻¹	3210 ± 315 M⁻¹ s⁻¹	25730 M⁻¹ s⁻¹	–
CC[C@H](C)[C@H](NC(=O)OCc1ccccc1)C(=O)N[C@@H](CCC(=O)O)C(=O)N[C@H](C(=O)NN(CC(=O)O)C(=O)[C@H]1O[C@@H]1C(=O)OCc1ccccc1)[C@@H](C)O [27d (S,S), (2S,3S)-3-(N^1-(N-Benzyloxycarbonylisoleucylglutamylthreonyl)-N^1-carboxymethylhydrazinocarbonyl)oxirane-2-carboxylic Acid Benzyl Ester]	–	9545 ± 960 M⁻¹ s⁻¹	45788 M⁻¹ s⁻¹	–
CC[C@H](C)[C@H](NC(=O)OCc1ccccc1)C(=O)N[C@@H](CCC(=O)O)C(=O)N[C@H](C(=O)NN(CC(=O)O)C(=O)[C@@H]1O[C@H]1C(=O)NCc1ccccc1)[C@@H](C)O [27g, (2R,3R)-2-(2-Benzylcarbamoyl)-3-(N^2-(N-benzyloxycarbonylisoleucylglutamylthreonyl)-N^1-carboxymethylhydrazinocarbonyl)oxirane]	–	6475 ± 240 M⁻¹ s⁻¹	18140 ± 4085 M⁻¹ s⁻¹	–
CCCCC(NC(=O)OC(C)(C)C)C(=O)NN(CCc1ccccc1)C(=O)C1OC1CCc1ccccc1 (stereo not drawn) [Boc-Nle-AHph-trans-EP-CH2CH2Ph, Boc-Nle-AHph-(trans)-EP-CH2CH2Ph]	–	–	–	kobs/[I] papain (papain): 0.5 M⁻¹ s⁻¹
CCOC(=O)[C@@H]1O[C@H]1C(=O)N(CC(C)C)NC(=O)[C@H](CC(C)C)NC(=O)[C@H](CC(C)C)NC(=O)OCc1ccccc1 [Cbz-Leu-Leu-ALeu-(2R, 3R)-EP-COOEt, (2R,3R)-3-(N^2-(N-Benzyloxycarbonylleucylleucyl)-N^1-isobutylhydrazinocarbonyl)oxirane-2-carboxylic Acid Ethyl Ester]	20.6 M⁻¹ s⁻¹	–	–	–
CCOC(=O)[C@H]1O[C@@H]1C(=O)N(CCC(N)=O)NC(=O)[C@H](Cc1ccccc1)NC(=O)[C@H](CC(C)C)NC(=O)OCc1ccccc1 [Cbz-Leu-Phe-AGln-(2S, 3S)-EP-COOEt, (2S,3S)-3-(N^2-(N-Benzyloxycarbonylleucylphenylalanyl)-N^1-carbamoylethylhydrazinocarbonyl)oxirane-2-carboxylic Acid Ethyl Ester]	–	–	–	kinact/KI (cathepsin B): 4.73 M⁻¹ s⁻¹
(2R,3R)-2-(1-Amido-phenethylcarbamoyl)-3-(N^2-(N-benzyloxycarbonylaspartylglutamylvalyl)-N^1-carboxymethylhydrazinocarbonyl)oxirane [24l]	–	470 ± 77 M⁻¹ s⁻¹	1040 ± 455 M⁻¹ s⁻¹	–
